Results from PMC6753678, “Fueling Open Innovation for Malaria Transmission-Blocking Drugs: Hundreds of Molecules Targeting Early Parasite Mosquito Stages” (Frontiers in Microbiology, 2019).

Tests used:
[1] = test system: HepG2 cells; conditions: HepG2 value reported with Pf FGAA screen; ref Miguel-Blanco et al 2017; cited from earlier work
[2] = test system: P. falciparum female gametocytes; set-up: method as in Miguel-Blanco et al 2017; conditions: TCAMS library screen; ref Miguel-Blanco et al 2017; read-out: Pf FGAA IC50; cited from earlier work
[3] = test system: P. falciparum female gametocytes; assay: P. falciparum female gametogenesis assay (Pf FGAA); conditions: 1: YES; 0: NO

Row | SMILES | HepG2 cytoxicity (Pf FGAA screen) [1] | IC50 [2] | Is compound selective in assay? Pf FGAA active? [3]
1 | COc1ccc(CNC2Cc3ccccc3C2)cc1-c1ccc(S(=O)(=O)NCCN2CCCC2)c(F)c1.O=C(O)C(F)(F)F [TCMDC-132266] | 6.03 µM | 1950 nM | 0 (0: NO)
2 | Cl.N[C@@H](CCNC1CCN(c2cccc(C(F)(F)F)c2)CC1)Cc1ccc(F)c(F)c1 [TCMDC-132301] | 3.76 µM | 440 nM | 0 (0: NO)
3 | Cc1ccc(Cn2nc(N3CCNCC3)ccc2=O)cc1NC(=O)Nc1ccc(-c2ccccc2)cc1.O=C(O)C(F)(F)F [TCMDC-132580] | 7.42 µM | 1940 nM | 0 (0: NO)
4 | O=S(=O)(Nc1cccc(F)c1CNCc1ccccn1)c1ccc(Cl)c(Cl)c1 [TCMDC-132598] | 20.42 µM | 1360 nM | 1 (1: YES)
5 | Cc1cccc2nc(-c3ccc(-c4ccc(CNCc5ccc(CN)cc5)cc4)cc3)[nH]c12.O=C(O)C(F)(F)F [TCMDC-132813] | 18.09 µM | 2160 nM | 0 (0: NO)
6 | NCc1ccc(CNCc2ccc(-c3ccc(-c4nc5cc(C(F)(F)F)ccc5[nH]4)s3)cc2)cc1.O=C(O)C(F)(F)F [TCMDC-132814] | 8.32 µM | 1020 nM | 0 (0: NO)
7 | CNCCNCc1ccc(-c2ccc(-c3nc4cc(C(F)(F)F)ccc4[nH]3)s2)cc1.O=C(O)C(F)(F)F [TCMDC-132838] | 6.10 µM | 1280 nM | 0 (0: NO)
8 | FC(F)(F)c1ccc2[nH]c(-c3ccc(-c4ccc(CNCCN5CCNCC5)cc4)cc3)nc2c1.O=C(O)C(F)(F)F [TCMDC-132865] | 16.43 µM | 1410 nM | 1 (1: YES)
9 | Cc1cccc2nc(-c3ccc(-c4ccc(CNCCN5CCNCC5)cc4)s3)[nH]c12.O=C(O)C(F)(F)F [TCMDC-132870] | 14.29 µM | 1530 nM | 0 (0: NO)
10 | FC(F)(F)c1ccc2[nH]c(-c3cccc(-c4cccc(CNCCN5CCNCC5)c4)c3)nc2c1.O=C(O)C(F)(F)F [TCMDC-132871] | 6.61 µM | 1220 nM | 0 (0: NO)
11 | CCCN(CC1CC1)c1ncc(-c2cccc(CNCCC3CCCN3C)c2)cn1 (stereo not drawn) [TCMDC-133142] | 3.09 µM | 2180 nM | 0 (0: NO)
12 | CN(CCc1ccccc1)c1ncc(-c2cccc(CNCCC3CCCN3C)c2)cn1 (stereo not drawn) [TCMDC-133143] | 2.88 µM | 1360 nM | 0 (0: NO)
13 | CN1CCCC1CCNCc1cccc(-c2cnc(N3CCCC(C)(C)C3)nc2)c1 (stereo not drawn) [TCMDC-133144] | 4.63 µM | 1670 nM | 0 (0: NO)
14 | O=C(Nc1cccc(-c2cccc(-c3nc4cc(C(F)(F)F)ccc4[nH]3)c2)c1)Nc1ccc(F)c(F)c1F [TCMDC-133229] | 3.43 µM | 1400 nM | 0 (0: NO)
15 | COc1ccccc1C1CCN(C2CCC(NC(=O)c3ccc4[nH]c(-c5ccc(C)cc5)nc4c3)CC2)CC1 (stereo not drawn) [TCMDC-133556] | 3.99 µM | 2490 nM | 0 (0: NO)
16 | CN1CCC(N2CCN(Cc3cccc(-c4ccc(-c5nc6cc(C(F)(F)F)ccc6[nH]5)cc4)c3)CC2)CC1.O=C(O)C(F)(F)F [TCMDC-133842] | 2.44 µM | 1090 nM | 0 (0: NO)
17 | CN1CCCC(CN2CCN(Cc3cccc(-c4ccc(-c5nc6cc(C(F)(F)F)ccc6[nH]5)cc4)c3)CC2)C1.O=C(O)C(F)(F)F (stereo not drawn) [TCMDC-133882] | 4.07 µM | 1300 nM | 0 (0: NO)
18 | O=C(O)C(F)(F)F.c1cc(CN2CCC(CCN3CCCCC3)CC2)cc(-c2csc(-c3nc4ccccc4[nH]3)c2)c1 [TCMDC-133919] | 6.04 µM | 2110 nM | 0 (0: NO)
19 | Cl.NC1CCN(CCc2ccc(NS(=O)(=O)c3ccc(-c4ccccc4)cc3)cc2)CC1 [TCMDC-134085] | 7.17 µM | 750 nM | 0 (0: NO)
20 | Cn1c(Nc2cc(C(C)(C)C)on2)nc2cc(Nc3ccnc(Nc4cccc(S(=O)(=O)N5CCOCC5)c4)n3)ccc21 [TCMDC-134098] | 8.13 µM | 1190 nM | 0 (0: NO)
21 | Cc1ccc(C(C(=O)Nc2ccc(N3CCNCC3)c(Cl)c2)c2ccccc2)cc1 (stereo not drawn) [TCMDC-134292] | 11.89 µM | 660 nM | 1 (1: YES)

Row | SMILES | HepG2 cytoxicity (Pf FGAA screen) [1] | IC50 [2] | Is compound selective in assay? Pf FGAA active? [3]
22 | CC(C)c1ccc(CN2CCC(CNC(=O)c3cc(-c4cccc(C(F)(F)F)c4)cs3)C2)cc1.O=C(O)C(F)(F)F (stereo not drawn) [TCMDC-134435] | 5.13 µM | 1300 nM | 0 (0: NO)
23 | CC(C)c1ccc(CN2CCC(CNC(=O)c3cc(-c4ccccc4F)cs3)C2)cc1.O=C(O)C(F)(F)F (stereo not drawn) [TCMDC-134436] | 9.14 µM | 1080 nM | 0 (0: NO)
24 | CC(C)c1ccc(CN2CCC(CNC(=O)c3cc(-c4cccc(Cl)c4)cs3)C2)cc1.O=C(O)C(F)(F)F (stereo not drawn) [TCMDC-134438] | 6.53 µM | 600 nM | 1 (1: YES)
25 | COc1cccc(-c2csc(C(=O)NCC3CCN(Cc4ccc(C(C)C)cc4)C3)c2)c1.O=C(O)C(F)(F)F (stereo not drawn) [TCMDC-134439] | 11.51 µM | 1370 nM | 0 (0: NO)
26 | CC(C)c1ccc(CN2CCC(CNC(=O)c3cc(-c4ccc(N(C)C)cc4)cs3)C2)cc1.O=C(O)C(F)(F)F (stereo not drawn) [TCMDC-134440] | 5.85 µM | 710 nM | 0 (0: NO)
27 | CC(C)(C)c1ccc(CN2CCC(CNC(=O)c3cc(-c4cccc(F)c4)cs3)C2)cc1.O=C(O)C(F)(F)F (stereo not drawn) [TCMDC-134444] | 6.61 µM | 1320 nM | 0 (0: NO)
28 | CCc1ccccc1-c1csc(C(=O)NCC2CCN(Cc3ccc(C(C)(C)C)cc3)C2)c1.O=C(O)C(F)(F)F (stereo not drawn) [TCMDC-134448] | 7.67 µM | 1200 nM | 0 (0: NO)
29 | CN(C)c1ccc(-c2csc(C(=O)NCC3CCN(Cc4ccc(C(C)(C)C)cc4)C3)c2)cc1.O=C(O)C(F)(F)F (stereo not drawn) [TCMDC-134449] | 7.24 µM | 600 nM | 1 (1: YES)
30 | O=C(NCC1CCN(Cc2cccc(C(F)(F)F)c2)C1)c1cc(-c2cccc(C(F)(F)F)c2)cs1.O=C(O)C(F)(F)F (stereo not drawn) [TCMDC-134483] | 16.22 µM | 1650 nM | 0 (0: NO)
31 | O=C(NCC1CCN(Cc2cccc(C(F)(F)F)c2)C1)c1cc(-c2cccc(F)c2)cs1.O=C(O)C(F)(F)F (stereo not drawn) [TCMDC-134484] | 18.87 µM | 2260 nM | 0 (0: NO)
32 | O=C(NCC1CCN(Cc2cccc(C(F)(F)F)c2)C1)c1cc(-c2cccc(Cl)c2)cs1.O=C(O)C(F)(F)F (stereo not drawn) [TCMDC-134485] | 16.03 µM | 890 nM | 1 (1: YES)
33 | CN(C)c1ccc(-c2csc(C(=O)NCC3CCN(Cc4cccc(C(F)(F)F)c4)C3)c2)cc1.O=C(O)C(F)(F)F (stereo not drawn) [TCMDC-134486] | 8.18 µM | 1560 nM | 0 (0: NO)
34 | N#Cc1ccc(-c2ccc(C(=O)NCC3CCN(CCN4CCC(c5ccc6c(c5OCC(N)=O)CCCC6)CC4)CC3)cc2)cc1 [TCMDC-134563] | 6.17 µM | 1260 nM | 0 (0: NO)
35 | NCCCCNc1cc(-c2ccnc(Nc3cccc(Cl)c3)n2)ccn1 [TCMDC-134683] | 0.67 µM | 1460 nM | 0 (0: NO)
36 | O=C(O)C(F)(F)F.O=c1[nH]ccc2nc(N[C@@H]3CCNC3)nc(Nc3cc(Cl)cc(Cl)c3)c12 [TCMDC-135052] | 4.79 µM | 740 nM | 0 (0: NO)
37 | NCCCNc1nc(Nc2ccc(C(F)(F)F)cc2F)c2c(=O)[nH]ccc2n1.O=C(O)C(F)(F)F [TCMDC-135056] | 9.30 µM | 1600 nM | 0 (0: NO)
38 | COc1ccccc1CNc1ccnc(N2CC(Oc3ccc(F)cc3)C2)n1 [TCMDC-135118] | 73.68 µM | 4070 nM | 1 (1: YES)
39 | CC(C)(C)OC(=O)NCc1ccc(Nc2nnc(-c3cccc(C(=O)NCc4cc(C(F)(F)F)cc(C(F)(F)F)c4)c3)o2)cc1 [TCMDC-135229] | 21.43 µM | 3140 nM | 0 (0: NO)
40 | CN1CCN(Cc2ccc(-c3cc4c(Nc5ccc(OCc6cccc(F)c6)c(Cl)c5)ncnc4s3)[nH]2)CC1 [TCMDC-135458] | 10.98 µM | 2410 nM | 0 (0: NO)
41 | CC(C)N1CCN(C(CN2CCN(CCCOc3ccc(-c4ccccc4)cc3)CC2)c2ccc(F)cc2)CC1.Cl (stereo not drawn) [TCMDC-135497] | 2.29 µM | 1420 nM | 0 (0: NO)
